Laboratory results taken from the NIST ThermoML archive (doi:10.1021/acs.jced.5b00658).

Assays:
[1] = Molar enthalpy of transition or fusion; settings: Crystal; DSC
[2] = for viscosity / mass density: 101.33 kPa; for mass density: Vibrating tube method; for Normal melting temperature: Crystal, DTA; for Glass transition temperature: DSC

CC(C)[n+]1ccn(C)c1.O=S(=O)([N-]S(=O)(=O)C(F)(F)F)C(F)(F)F
Settings	Glass transition temperature [°C]	Molar enthalpy of transition or fusion [kcal/mol]	Normal melting temperature [°C]
[1]	–	5.71	–
[2]	-83	–	9.0

[2], Liquid, Concentric cylinders viscometry
Settings	viscosity [mPa·s]
278.15 K	122
288.15 K	75
293.15 K	59
298.15 K	48
303.15 K	39
313.15 K	28
323.15 K	21
333.15 K	16

[2], Liquid
Settings	mass density [kg/m3]
283.15 K	1492.2
288.15 K	1487.2
293.15 K	1482.5
298.15 K	1477.6
303.15 K	1472.8
308.15 K	1467.8
313.15 K	1462.6

CCCC[n+]1ccn(C)c1.O=S(=O)([N-]S(=O)(=O)C(F)(F)F)C(F)(F)F
Settings	Glass transition temperature [°C]	Molar enthalpy of transition or fusion [kcal/mol]	Normal melting temperature [°C]
[1]	–	5.76	–
[2]	-88.9	–	-4.6

[2], Liquid
Settings	mass density [kg/m3]
283.15 K	1451.2
288.15 K	1446.5
293.15 K	1441.9
298.15 K	1436.9
303.15 K	1432.1
308.15 K	1427.1
313.15 K	1422.6

CCCn1cc[n+](C)c1.O=S(=O)([N-]S(=O)(=O)C(F)(F)F)C(F)(F)F
[2], Liquid, Concentric cylinders viscometry
Settings	viscosity [mPa·s]
278.2 K	103
288.15 K	64
298.15 K	43
308.15 K	30
318.15 K	22
328.15 K	17
338.15 K	13

[2], Liquid
Settings	mass density [kg/m3]
283.15 K	1490.2
288.15 K	1485.2
293.15 K	1480.6
298.15 K	1475.6
303.15 K	1470.8
308.15 K	1465.8
313.15 K	1460.6

CC(C)CCCCn1cc[n+](C)c1.O=S(=O)([N-]S(=O)(=O)C(F)(F)F)C(F)(F)F
Settings	Glass transition temperature [°C]	Molar enthalpy of transition or fusion [kcal/mol]	Normal melting temperature [°C]
[1]	–	0.12	–
[2]	-81.3	–	11.2

viscosity [mPa·s], [2]
Settings	278.15 K	288.15 K	293.15 K	298.15 K	303.15 K	313.15 K	323.15 K	333.15 K
Concentric cylinders viscometry, Liquid	–	164	124	96	76	50	35	25
Metastable liquid, Concentric cylinders viscometry	306	–	–	–	–	–	–	–

[2], Liquid
Settings	mass density [kg/m3]
283.15 K	1357.5
288.15 K	1353
293.15 K	1348.7
298.15 K	1344.2
303.15 K	1339.8
308.15 K	1335.2
313.15 K	1330.6

CCCCCCCn1cc[n+](C)c1.O=S(=O)([N-]S(=O)(=O)C(F)(F)F)C(F)(F)F
Settings	Glass transition temperature [°C]	Molar enthalpy of transition or fusion [kcal/mol]	Normal melting temperature [°C]
[1]	–	0.0956	–
[2]	-85.4	–	-0.9

[2], Liquid, Concentric cylinders viscometry
Settings	viscosity [mPa·s]
278.2 K	234
288.15 K	132
298.15 K	82
308.15 K	54
318.15 K	37
328.15 K	27
338.15 K	20

[2], Liquid
Settings	mass density [kg/m3]
283.15 K	1358.4
288.15 K	1354.1
293.15 K	1349.8
298.15 K	1345.4
303.15 K	1341
308.15 K	1336.4
313.15 K	1331.6

CCCCCn1cc[n+](C)c1.O=S(=O)([N-]S(=O)(=O)C(F)(F)F)C(F)(F)F
[2], Liquid
Settings	mass density [kg/m3]
283.15 K	1417.5
288.15 K	1412.9
293.15 K	1408.4
298.15 K	1403.6
303.15 K	1399
308.15 K	1393.9
313.15 K	1389.3

CC(C)CCCn1cc[n+](C)c1.O=S(=O)([N-]S(=O)(=O)C(F)(F)F)C(F)(F)F
Settings	Glass transition temperature [°C]	Molar enthalpy of transition or fusion [kcal/mol]	Normal melting temperature [°C]
[1]	–	0.0239	–
[2]	-81	–	3.2

[2], Liquid, Concentric cylinders viscometry
Settings	viscosity [mPa·s]
278.15 K	237
288.15 K	137
293.15 K	107
298.15 K	85
303.15 K	69
313.15 K	45
323.15 K	32
333.15 K	23

[2], Liquid
Settings	mass density [kg/m3]
283.15 K	1385.9
288.15 K	1381.3
293.15 K	1377
298.15 K	1372.4
303.15 K	1367.9
308.15 K	1363.3
313.15 K	1358.5

CC(C)Cn1cc[n+](C)c1.O=S(=O)([N-]S(=O)(=O)C(F)(F)F)C(F)(F)F
Settings	Glass transition temperature [°C]	Molar enthalpy of transition or fusion [kcal/mol]	Normal melting temperature [°C]
[1]	–	1.63	–
[2]	-81.2	–	-16.2

[2], Liquid
Settings	mass density [kg/m3]	viscosity [mPa·s]
278.15 K	–	244
283.15 K	1450.3	–
288.15 K	1445.6	132
293.15 K	1441.1	103
298.15 K	1436.3	79
303.15 K	1431.6	61
308.15 K	1426.6	–
313.15 K	1421.9	40
323.15 K	–	28
333.15 K	–	20

CCCCCC[n+]1ccn(C)c1.O=S(=O)([N-]S(=O)(=O)C(F)(F)F)C(F)(F)F
Settings	Glass transition temperature [°C]	Molar enthalpy of transition or fusion [kcal/mol]	Normal melting temperature [°C]
[1]	–	1.65	–
[2]	-85.7	–	-11.2

[2], Liquid
Settings	mass density [kg/m3]
283.15 K	1386.1
288.15 K	1381.5
293.15 K	1377.2
298.15 K	1372.7
303.15 K	1368.3
308.15 K	1363.6
313.15 K	1358.8

CC(C)CCn1cc[n+](C)c1.O=S(=O)([N-]S(=O)(=O)C(F)(F)F)C(F)(F)F
Settings	Glass transition temperature [°C]	Molar enthalpy of transition or fusion [kcal/mol]	Normal melting temperature [°C]
[1]	–	0.0239	–
[2]	-83.7	–	-0.0

[2], Liquid, Concentric cylinders viscometry
Settings	viscosity [mPa·s]
278.15 K	195
288.15 K	112
293.15 K	86
298.15 K	69
303.15 K	56
313.15 K	38
323.15 K	27
333.15 K	20

[2], Liquid
Settings	mass density [kg/m3]
283.15 K	1417.5
288.15 K	1412.7
293.15 K	1408.1
298.15 K	1403.3
303.15 K	1398.5
308.15 K	1393.7
313.15 K	1388.7
